Values after ≈ are worked out from the molar mass of the structure shown. Positions of bridges follow the written chain, without caps; N, C: chain ends. Non-standard residues stand in square brackets, D forms with d. Residues, ends and D or L forms follow the SMILES beside them. *: point of attachment. Heptanoyl(6-Me) = CC(C)CCCCC(=O)*; Dab = NCC[C@H](N)C(=O)O

Data set [1] in a line: Compound was tested for acute toxicity in mice upon intravenous administration. The note with it: mouse, in vivo. Type of data set: organism-based.
A short description of data set [2]: Ratio of LD50 to PD50 was evaluated. In kind it is ADME, organism-based. The note with it: mouse, in vivo.
The species entered for the next data set is Mus musculus. As to the kind of experiment: Compound was tested for protection against Pseudomonas infection in mice. In kind it is functional. The note with it: read-out: PD50.
A further data set has as its system Staphylococcus. Nature of the data set: Compound was tested for antibacterial activity against Staphylococcus organism. Type of data set: functional.
In another data set the test system is Pseudomonas. As to the kind of experiment: Compound was tested for antibacterial activity against Pseudomonas organism. In kind it is functional.
Another data set concerns Escherichia coli. As to the kind of experiment: Compound was tested for antibacterial activity against Escherichia coli organism. Type of data set: functional.

In general, LD50 refers to the dose at which mortality reaches 50%. With `CC(C)CCCCC(=O)N[C@@H](CCNC(=O)CN)C(=O)N[C@H](C(=O)N[C@@H](CCN)C(=O)N[C@H]1CCNC(=O)[C@H]([C@@H](C)O)NC(=O)[C@H](CCN)NC(=O)[C@H](CCN)NC(=O)[C@H](CC(C)C)NC(=O)[C@@H](Cc2ccccc2)NC(=O)[C@H](CCN)NC1=O)[C@@H](C)O` [listing 1 of 2 here], in data set [1], the LD50 was found to be 20 mg/kg. In addition, the selectivity ratio in data set [2] is 2.8.
The term MIC denotes the lowest concentration that inhibits growth of the organism. As for `CC(C)CCCCC(=O)N[C@@H](CCNC(=O)CN)C(=O)N[C@H](C(=O)N[C@@H](CCN)C(=O)N[C@H]1CCNC(=O)[C@H]([C@@H](C)O)NC(=O)[C@H](CCN)NC(=O)[C@H](CCN)NC(=O)[C@H](CC(C)C)NC(=O)[C@@H](Cc2ccccc2)NC(=O)[C@H](CCN)NC1=O)[C@@H](C)O` [listing 2 of 2 here], the ED50 in the data set filed under Mus musculus is 7 mg/kg. Moreover, the results for the MIC with Staphylococcus, with Pseudomonas and against Escherichia coli were 8 µg/mL (≈ 6.42 µM), 0.033 µg/mL (≈ 0.0265 µM) and 0.028 µg/mL (≈ 0.0225 µM), respectively.
On to `CC(C)CCCCC(=O)N[C@@H](CCN)C(=O)N[C@H](C(=O)N[C@@H](CCN)C(=O)N[C@H]1CCNC(=O)[C@H]([C@@H](C)O)NC(=O)[C@H](CCNC(=O)[C@@H](N)C[C@H](CCN)C(=O)OCc2ccccc2)NC(=O)[C@H](CCN)NC(=O)[C@H](CC(C)C)NC(=O)[C@@H](Cc2ccccc2)NC(=O)[C@H](CCN)NC1=O)[C@@H](C)O`, for which, in the data set filed under Mus musculus, the ED50 was 2 mg/kg. Besides, the LD50 in data set [1] was determined as 13 mg/kg. The MIC amounted to 0.445 µg/mL (≈ 0.307 µM) against Staphylococcus, 0.087 µg/mL (≈ 0.0599 µM) against Pseudomonas and 0.146 µg/mL (≈ 0.101 µM) in the data set on Escherichia coli. Besides, in data set [2], the selectivity ratio was 6.5.
For `CC(C)CCCCC(=O)N[C@@H](CCN)C(=O)N[C@H](C(=O)N[C@@H](CCN)C(=O)N[C@H]1CCNC(=O)[C@H]([C@@H](C)O)NC(=O)[C@H](CCN)NC(=O)[C@H](CCN)NC(=O)[C@H](CC(C)C)NC(=O)[C@@H](Cc2ccccc2)NC(=O)[C@H](CCN)NC1=O)[C@@H](C)O` ({Heptanoyl(6-Me)}-[Dab]T[Dab][Dab][Dab][dF]L[Dab][Dab]T; lactam 4-C) [listing 1 of 2 here], the ED50 in the data set filed under Mus musculus is 2 mg/kg. The figures for the minimal inhibitory concentration (MIC) against Staphylococcus, against Pseudomonas and with Escherichia coli were 2.8 µg/mL (≈ 2.35 µM), 0.051 µg/mL (≈ 0.0429 µM) and 0.026 µg/mL (≈ 0.0219 µM), respectively.
`CC(C)CCCCC(=O)N[C@@H](CCN)C(=O)N[C@H](C(=O)N[C@@H](CCN)C(=O)N[C@H]1CCNC(=O)[C@H]([C@@H](C)O)NC(=O)[C@H](CCNC(=O)[C@@H](N)Cc2ccc(O)cc2)NC(=O)[C@H](CCN)NC(=O)[C@H](CC(C)C)NC(=O)[C@@H](Cc2ccccc2)NC(=O)[C@H](CCN)NC1=O)[C@@H](C)O`: the ED50 in the data set filed under Mus musculus worked out at 2.2 mg/kg. In data set [1], this compound came in with a median lethal dose (LD50) of 19 mg/kg. Moreover, the MIC against Staphylococcus was 2.2 µg/mL (≈ 1.63 µM); against Pseudomonas it was 0.073 µg/mL (≈ 0.054 µM); against Escherichia coli, 0.175 µg/mL (≈ 0.129 µM). The selectivity ratio in data set [2] is 8.6.
Turning to `CC(C)CCCCC(=O)N[C@@H](CCN)C(=O)N[C@H](C(=O)N[C@@H](CCN)C(=O)N[C@H]1CCNC(=O)[C@H]([C@@H](C)O)NC(=O)[C@H](CCNC(=O)[C@@H](N)CCCN=C(N)N)NC(=O)[C@H](CCN)NC(=O)[C@H](CC(C)C)NC(=O)[C@@H](Cc2ccccc2)NC(=O)[C@H](CCN)NC1=O)[C@@H](C)O`, the ED50 in the data set filed under Mus musculus is 0.25 mg/kg. In data set [1], this compound displayed an LD50 of 15 mg/kg. Also, the MIC came out at 2 µg/mL (≈ 1.49 µM) against Staphylococcus, 0.03 µg/mL (≈ 0.0223 µM) against Pseudomonas and 0.16 µg/mL (≈ 0.119 µM) against Escherichia coli. In data set [2], the selectivity ratio came to 60.
Regarding `CC(C)CCCCC(=O)N[C@@H](CCN)C(=O)N[C@H](C(=O)N[C@@H](CCN)C(=O)N[C@H]1CCNC(=O)[C@H]([C@@H](C)O)NC(=O)[C@H](CCN)NC(=O)[C@H](CCN)NC(=O)[C@H](CC(C)C)NC(=O)[C@@H](Cc2ccccc2)NC(=O)[C@H](CCN)NC1=O)[C@@H](C)O` ({Heptanoyl(6-Me)}-[Dab]T[Dab][Dab][Dab][dF]L[Dab][Dab]T; lactam 4-C) [listing 2 of 2 here], the 50% lethal dose (LD50) in data set [1] was 9 mg/kg. The selectivity ratio in data set [2] was 4.5.
As to `CCCCCCC(N)C(=O)NCC[C@@H]1NC(=O)[C@H](CCN)NC(=O)[C@H](CC(C)C)NC(=O)[C@@H](Cc2ccccc2)NC(=O)[C@H](CCN)NC(=O)[C@@H](NC(=O)[C@H](CCN)NC(=O)[C@@H](NC(=O)[C@H](CCN)NC(=O)CCCCC(C)C)[C@@H](C)O)CCNC(=O)[C@H]([C@@H](C)O)NC1=O` (some centres undefined), the ED50 in the data set filed under Mus musculus was found to be 7 mg/kg. Also, the LD50 in data set [1] was determined as 12 mg/kg. In addition, the MIC in the data set with Staphylococcus stood at 0.561 µg/mL (≈ 0.422 µM); in the data set with Pseudomonas, 0.051 µg/mL (≈ 0.0383 µM); in the data set with Escherichia coli, 0.225 µg/mL (≈ 0.169 µM). Besides, the selectivity ratio in data set [2] amounted to 1.7.
As for `CC(C)CCCCC(=O)N[C@@H](CCN)C(=O)N[C@H](C(=O)N[C@@H](CCN)C(=O)N[C@H]1CCNC(=O)[C@H]([C@@H](C)O)NC(=O)[C@H](CCN(CC(=O)O)CC(=O)O)NC(=O)[C@H](CCN)NC(=O)[C@H](CC(C)C)NC(=O)[C@@H](Cc2ccccc2)NC(=O)[C@H](CCN)NC1=O)[C@@H](C)O`, the minimum inhibitory concentration (MIC) against Staphylococcus was 22.6 µg/mL (≈ 17.3 µM); against Pseudomonas, 0.318 µg/mL (≈ 0.244 µM); against Escherichia coli, 1.19 µg/mL (≈ 0.911 µM).

For the origin of these results see ChEMBL document CHEMBL1130694, “Selective chemical modifications of polymyxin B” (Bioorg Med Chem Lett, 1998).
